Results as given in ChEMBL document CHEMBL1201862, “PubChem BioAssay data set” (2004).
Activity calls are given as the source filed them.

How the values were obtained:
[1] = biological target: Hepatocyte nuclear factor 4-alpha (Homo sapiens, UniProt P41235); format: functional, cell-based;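 note: biochemical luminescence-based dose-response counterscreen measuring inhibition of HNF4 dimerization, run alongside a screen for blockers of ABHD5–perilipin-5 interaction; split luciferase complementation of HNF4 fusion proteins in cell lysate measuring dimerization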
Chain of Hepatocyte nuclear factor 4-alpha (P41235 whole entry, the tested form may be a part): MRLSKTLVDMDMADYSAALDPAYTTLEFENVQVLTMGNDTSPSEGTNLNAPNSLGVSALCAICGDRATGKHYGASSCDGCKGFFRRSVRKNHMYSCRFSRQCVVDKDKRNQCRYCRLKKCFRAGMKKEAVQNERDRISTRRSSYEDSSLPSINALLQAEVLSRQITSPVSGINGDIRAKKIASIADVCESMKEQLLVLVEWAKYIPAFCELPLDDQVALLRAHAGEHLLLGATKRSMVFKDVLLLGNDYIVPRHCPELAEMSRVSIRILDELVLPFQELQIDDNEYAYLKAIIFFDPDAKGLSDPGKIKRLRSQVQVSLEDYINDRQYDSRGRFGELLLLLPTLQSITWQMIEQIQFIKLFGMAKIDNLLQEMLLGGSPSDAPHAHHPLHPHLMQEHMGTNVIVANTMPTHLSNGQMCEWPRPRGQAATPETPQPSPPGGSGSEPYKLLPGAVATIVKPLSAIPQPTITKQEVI

[2] = biological target: T1, NADPH oxidase 1 (Homo sapiens, UniProt Q9Y5S8); assay: Late-stage luminescence-based cell-based dose response assay to identify inhibitors of NADPH oxidase 1 (NOX1): Synthesized analogs.; format: functional
T1 sequence (Q9Y5S8 whole entry): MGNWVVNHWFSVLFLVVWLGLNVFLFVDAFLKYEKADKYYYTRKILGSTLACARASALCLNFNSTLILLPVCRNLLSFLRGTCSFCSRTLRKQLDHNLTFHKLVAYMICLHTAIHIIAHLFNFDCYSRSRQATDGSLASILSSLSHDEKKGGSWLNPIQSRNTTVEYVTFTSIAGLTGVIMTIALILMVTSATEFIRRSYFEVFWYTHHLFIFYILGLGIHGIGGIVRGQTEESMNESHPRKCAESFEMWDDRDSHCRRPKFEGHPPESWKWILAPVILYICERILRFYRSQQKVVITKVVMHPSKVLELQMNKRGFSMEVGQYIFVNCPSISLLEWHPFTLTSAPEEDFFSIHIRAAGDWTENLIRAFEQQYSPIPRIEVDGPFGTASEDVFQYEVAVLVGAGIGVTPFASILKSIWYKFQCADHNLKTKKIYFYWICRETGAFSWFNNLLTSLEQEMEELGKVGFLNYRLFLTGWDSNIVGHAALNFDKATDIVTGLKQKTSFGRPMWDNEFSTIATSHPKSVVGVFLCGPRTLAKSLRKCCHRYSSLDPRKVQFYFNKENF

[3] = control 3'UTR Renilla luciferase suppression, dose response, counter-screen for Shn3 inhibitor project, cell-based, Clone20-Shn3RL, cherry-picked (AID 624133); format: functional
[4] = biological target: G-protein coupled receptor 55 (Homo sapiens, UniProt Q9Y2T6); assay: GPR55 agonists via beta-arrestin recruitment, primary screen, imaging, U2OS cells, beta-arrestin-GFP redistribution (AID 1961); format: functional
Chain of G-protein coupled receptor 55 (Q9Y2T6 whole entry): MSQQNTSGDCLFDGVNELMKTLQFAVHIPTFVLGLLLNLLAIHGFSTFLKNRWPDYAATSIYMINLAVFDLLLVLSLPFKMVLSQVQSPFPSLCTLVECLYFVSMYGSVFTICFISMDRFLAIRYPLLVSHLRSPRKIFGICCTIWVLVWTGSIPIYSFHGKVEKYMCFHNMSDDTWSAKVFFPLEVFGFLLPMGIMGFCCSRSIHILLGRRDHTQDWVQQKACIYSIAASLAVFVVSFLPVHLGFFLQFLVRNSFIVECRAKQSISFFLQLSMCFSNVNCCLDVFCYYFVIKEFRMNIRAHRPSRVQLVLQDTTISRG

[5] = biological target: E3 ubiquitin-protein ligase Mdm2 (Homo sapiens, UniProt Q00987); assay: enhancers of MDM2-luciferase reporter signal, concentration-effect titration, project on inhibitors of MDM2 ubiquitin ligase, cellular assay, luminescent readout, 384-well plate format (AID 1394); format: functional;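 note: MDM2 E3 inhibitors raise luminescence so EC50 is for signal enhancement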
Chain of E3 ubiquitin-protein ligase Mdm2 (Q00987 whole entry): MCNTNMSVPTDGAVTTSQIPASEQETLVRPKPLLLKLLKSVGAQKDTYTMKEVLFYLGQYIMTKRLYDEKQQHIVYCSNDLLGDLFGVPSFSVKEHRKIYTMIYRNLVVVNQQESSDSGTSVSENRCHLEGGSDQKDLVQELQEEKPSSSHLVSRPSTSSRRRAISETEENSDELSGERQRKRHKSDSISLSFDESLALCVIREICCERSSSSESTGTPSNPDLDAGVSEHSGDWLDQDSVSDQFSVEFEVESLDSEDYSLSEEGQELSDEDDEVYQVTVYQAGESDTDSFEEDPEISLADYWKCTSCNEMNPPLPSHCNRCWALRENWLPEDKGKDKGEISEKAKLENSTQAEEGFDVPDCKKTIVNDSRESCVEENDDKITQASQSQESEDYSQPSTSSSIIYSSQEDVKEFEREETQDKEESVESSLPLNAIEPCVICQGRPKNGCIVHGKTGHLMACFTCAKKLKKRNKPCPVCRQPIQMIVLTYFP

[6] = cells; format: functional, cell-based; conditions: HEK-CNG
[7] = Shn3 3'UTR reporter inhibitors, dose response, cell-based, Clone20 osteoblasts, firefly luciferase, cherry-picked (AID 624132); format: functional;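 note: firefly luciferase luminescence from reporter carrying the Shn3 3'UTR in osteoblasts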
[8] = biological target: T2, Galanin receptor type 3 (Homo sapiens, UniProt O60755); assay: Fluorescence-based cell-based primary high throughput dose response assay to identify antagonists of the Galanin Receptor 3 (GalR3).; format: functional
T2 sequence (O60755 whole entry): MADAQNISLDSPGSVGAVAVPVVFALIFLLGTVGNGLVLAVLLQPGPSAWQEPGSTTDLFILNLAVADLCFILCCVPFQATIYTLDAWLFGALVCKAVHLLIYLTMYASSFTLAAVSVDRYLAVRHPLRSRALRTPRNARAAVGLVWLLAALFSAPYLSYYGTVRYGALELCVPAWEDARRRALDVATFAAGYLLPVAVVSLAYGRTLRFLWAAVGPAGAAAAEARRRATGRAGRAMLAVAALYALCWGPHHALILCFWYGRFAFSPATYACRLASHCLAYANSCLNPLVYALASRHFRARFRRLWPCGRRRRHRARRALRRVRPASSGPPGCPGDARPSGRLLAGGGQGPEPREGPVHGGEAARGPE

[9] = biological target: T3, Streptokinase A (Streptococcus pyogenes serotype M1, UniProt P10520); assay: S. pyogenes streptokinase expression inhibitors, potency, dose response, plasminogen activation absorbance, OD405 (AID 1914); format: functional, Streptococcus pyogenes M1 GAS;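 note: secreted streptokinase activity via plasminogen activation per viability signal from cell pellet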
T3 sequence (P10520 whole entry): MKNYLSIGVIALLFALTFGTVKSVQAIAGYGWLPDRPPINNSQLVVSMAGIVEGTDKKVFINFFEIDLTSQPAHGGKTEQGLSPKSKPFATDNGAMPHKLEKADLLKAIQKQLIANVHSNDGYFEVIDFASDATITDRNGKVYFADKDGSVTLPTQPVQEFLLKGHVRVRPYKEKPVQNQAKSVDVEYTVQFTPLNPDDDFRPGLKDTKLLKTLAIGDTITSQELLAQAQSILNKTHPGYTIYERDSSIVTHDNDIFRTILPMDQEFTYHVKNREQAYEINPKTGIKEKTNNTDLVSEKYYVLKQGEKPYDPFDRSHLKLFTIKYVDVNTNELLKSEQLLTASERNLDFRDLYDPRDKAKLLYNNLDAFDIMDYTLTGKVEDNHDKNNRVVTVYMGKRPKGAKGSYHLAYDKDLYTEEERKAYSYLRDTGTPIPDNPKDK

[10] = test system: Streptococcus sp. 'group A'; assay: growth inhibition of control SK(-) GAS strain, dose response, counter-screen for streptokinase expression inhibitor project, luminescence, kanamycin, BacTiterGlo, confirmation (AID 1900); format: functional, organism-based
[11] = TB: CFU replicating Measured in Microorganism System Using Imaging - 7108-05_Inhibitor_Dose_DryPowder_Activity_Set2.; format: functional
[12] = test system: Streptococcus; assay: Group A Streptococcus viability loss, dose response, counter-screen for streptokinase expression inhibitor project, luminescence, BacTiterGlo (AID 1915); format: functional, organism-based;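 note: potency for reduction of bacterial viability or growth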
[13] = THP-1 cell cytotoxicity, dose response, cytotoxicity control for non-replicating M. tuberculosis project (AID 489025); format: functional
[14] = cells; format: functional
[15] = biological target: T4, Oxysterols receptor LXR-beta (Homo sapiens, UniProt P55055); assay: LXR agonists, Gal4 luciferase reporter, dose response, counter-screen for ssDAF-12 agonist project, cell-based, luminescence, HEK293, S. stercoralis campaign (AID 720737); format: functional; conditions: read-out: IC50 (the source's name)
T4 sequence (P55055 whole entry): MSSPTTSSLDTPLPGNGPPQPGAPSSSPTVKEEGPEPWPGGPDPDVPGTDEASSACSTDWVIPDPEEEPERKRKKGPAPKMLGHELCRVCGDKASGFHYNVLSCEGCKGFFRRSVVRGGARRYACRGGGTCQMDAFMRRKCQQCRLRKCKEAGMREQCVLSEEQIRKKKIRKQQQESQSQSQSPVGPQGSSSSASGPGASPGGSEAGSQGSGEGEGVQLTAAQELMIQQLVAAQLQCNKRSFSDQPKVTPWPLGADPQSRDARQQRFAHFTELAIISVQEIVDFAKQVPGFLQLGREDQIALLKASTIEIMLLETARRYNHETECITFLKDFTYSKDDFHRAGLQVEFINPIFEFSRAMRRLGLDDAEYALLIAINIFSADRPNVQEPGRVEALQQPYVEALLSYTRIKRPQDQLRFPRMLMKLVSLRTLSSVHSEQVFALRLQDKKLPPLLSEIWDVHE

[16] = Luminescence-based cell-based high throughput dose response assay to identify activators of the DAF-12 from the parasite S. stercoralis (ssDAF-12).; format: functional

Compound: C=CC(=O)N1c2ccccc2Sc2ccc(NC(=O)OCC)cc21
- IC50 [1]: 12.2 µM (inactive)
- IC50 [2]: > 50 µM (not active)

Compound: COc1ccccc1-c1cc(C(F)(F)F)nc(S(=O)(=O)CCCC(=O)Nc2cccnc2Cl)n1
- AC50 [3]: 13.1 µM (active)
- EC50 [4]: 2.94 µM (active)
- EC50 [5]: 2 µM (not active)
- EC50 [6]: > 29.9 µM (inactive)
- AC50 [7]: 10.6 µM (active)
- IC50 [8]: > 29.9 µM (inactive)

Compound: Cn1c(NC(=O)c2ccccc2)nc2ccccc21
- EC50 [9]: > 150 µM (not active)
- EC50 [10]: 14.8 µM (active)
- AbsAC90 [11]: 299.99 µM
- EC50 [12]: > 150 µM (not active)
- CC50 [13]: > 40 µM (active)
- IC50 [14]: 2.41 µM (active)

Compound: Cc1ccc([N+](=O)[O-])cc1NC(=O)C1CCCC1
- EC50 [15]: > 67.5 µM (inactive)
- IC50 [16]: > 67.5 µM (inactive)
